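Assay format: 96-well plates, 48-hour exposure. TGI: concentration producing complete growth inhibition.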
How the values were obtained:
Test in all cases: growth of human tumour cells (NCI), 48 h
MDA-MB-231 breast = test system: MDA-MB-231 breast
K-562 leukemia = test system: K-562 leukemia
OVCAR-4 ovarian = test system: OVCAR-4 ovarian
DU-145 prostate = test system: DU-145 prostate
SF-539 CNS = test system: SF-539 CNS
M14 melanoma = test system: M14 melanoma
RXF 393 renal = test system: RXF 393 renal
T-47D breast = test system: T-47D breast
CCRF-CEM leukemia = test system: CCRF-CEM leukemia
HCC-2998 colon = test system: HCC-2998 colon
786-0 renal = test system: 786-0 renal
SK-OV-3 ovarian = test system: SK-OV-3 ovarian
SF-268 CNS = test system: SF-268 CNS
SNB-19 CNS = test system: SNB-19 CNS
SW-620 colon = test system: SW-620 colon
NCI-H522 lung = test system: NCI-H522 lung
OVCAR-3 ovarian = test system: OVCAR-3 ovarian
MOLT-4 leukemia = test system: MOLT-4 leukemia
HS 578T breast = test system: HS 578T breast
HOP-92 NSCLC = test system: HOP-92 NSCLC
SNB-75 CNS = test system: SNB-75 CNS
U251 CNS = test system: U251 CNS
OVCAR-8 ovarian = test system: OVCAR-8 ovarian
SF-295 CNS = test system: SF-295 CNS
CAKI-1 renal = test system: CAKI-1 renal
A549 NSCLC = test system: A549 NSCLC
BT-549 breast = test system: BT-549 breast
OVCAR-5 ovarian = test system: OVCAR-5 ovarian
KM12 colon = test system: KM12 colon
SK-MEL-5 melanoma = test system: SK-MEL-5 melanoma
MDA-N = test system: MDA-N
NCI-H226 lung = test system: NCI-H226 lung
A498 renal = test system: A498 renal
NCI-H23 lung = test system: NCI-H23 lung
MDA-MB-435 = test system: MDA-MB-435
TK-10 renal = test system: TK-10 renal
EKVX NSCLC = test system: EKVX NSCLC
UACC-257 melanoma = test system: UACC-257 melanoma
ACHN renal = test system: ACHN renal
HCT-116 colon = test system: HCT-116 colon
SN12C renal = test system: SN12C renal
NCI-H460 lung = test system: NCI-H460 lung
UACC-62 melanoma = test system: UACC-62 melanoma
MCF7 breast = test system: MCF7 breast
SR leukemia = test system: SR leukemia
UO-31 renal = test system: UO-31 renal
IGROV1 ovarian = test system: IGROV1 ovarian
HL-60(TB) leukemia = test system: HL-60(TB) leukemia
SK-MEL-28 melanoma = test system: SK-MEL-28 melanoma
COLO 205 colon = test system: COLO 205 colon
PC-3 prostate = test system: PC-3 prostate
HOP-62 NSCLC = test system: HOP-62 NSCLC
HT29 colon = test system: HT29 colon
MALME-3M melanoma = test system: MALME-3M melanoma
HCT-15 colon = test system: HCT-15 colon
LOX IMVI melanoma = test system: LOX IMVI melanoma
RPMI-8226 leukemia = test system: RPMI-8226 leukemia
SK-MEL-2 melanoma = test system: SK-MEL-2 melanoma

## O=C1CCN(CCC(F)(F)C(F)(F)C(F)(F)C(F)(F)C(F)(F)C(F)(F)F)C(=S)N1CCC(F)(F)C(F)(F)C(F)(F)C(F)(F)C(F)(F)C(F)(F)F
MDA-MB-231 breast
  TGI: > 100 µM
K-562 leukemia
  TGI: > 100 µM
OVCAR-4 ovarian
  TGI: > 100 µM
DU-145 prostate
  TGI: > 100 µM
SF-539 CNS
  TGI: > 100 µM
M14 melanoma
  TGI: > 100 µM
RXF 393 renal
  TGI: > 100 µM
T-47D breast
  TGI: > 100 µM
CCRF-CEM leukemia
  TGI: > 100 µM
HCC-2998 colon
  TGI: > 100 µM
786-0 renal
  TGI: > 100 µM
SK-OV-3 ovarian
  TGI: > 100 µM
SF-268 CNS
  TGI: > 100 µM
SNB-19 CNS
  TGI: > 100 µM
SW-620 colon
  TGI: > 100 µM
NCI-H522 lung
  TGI: > 100 µM
OVCAR-3 ovarian
  TGI: > 100 µM
MOLT-4 leukemia
  TGI: > 100 µM
HS 578T breast
  TGI: > 100 µM
HOP-92 NSCLC
  TGI: > 100 µM
SNB-75 CNS
  TGI: > 100 µM
U251 CNS
  TGI: > 100 µM
OVCAR-8 ovarian
  TGI: > 100 µM
SF-295 CNS
  TGI: > 100 µM
CAKI-1 renal
  TGI: > 100 µM
A549 NSCLC
  TGI: > 100 µM
BT-549 breast
  TGI: > 100 µM
OVCAR-5 ovarian
  TGI: > 100 µM
KM12 colon
  TGI: > 100 µM
SK-MEL-5 melanoma
  TGI: > 100 µM
MDA-N
  TGI: > 100 µM
NCI-H226 lung
  TGI: > 100 µM
A498 renal
  TGI: > 100 µM
NCI-H23 lung
  TGI: > 100 µM
MDA-MB-435
  TGI: > 100 µM
TK-10 renal
  TGI: > 100 µM
EKVX NSCLC
  TGI: > 100 µM
UACC-257 melanoma
  TGI: > 100 µM
ACHN renal
  TGI: > 100 µM
HCT-116 colon
  TGI: > 100 µM
SN12C renal
  TGI: > 100 µM
NCI-H460 lung
  TGI: > 100 µM
UACC-62 melanoma
  TGI: > 100 µM
MCF7 breast
  TGI: > 100 µM
SR leukemia
  TGI: > 100 µM
UO-31 renal
  TGI: > 100 µM
IGROV1 ovarian
  TGI: > 100 µM
HL-60(TB) leukemia
  TGI: > 100 µM
SK-MEL-28 melanoma
  TGI: > 100 µM
COLO 205 colon
  TGI: > 100 µM
PC-3 prostate
  TGI: > 100 µM
HOP-62 NSCLC
  TGI: > 100 µM
HT29 colon
  TGI: > 100 µM
MALME-3M melanoma
  TGI: > 100 µM

## COc1cccc(C2c3cc4c(cc3OC(NNc3ccccc3)C2C)OCO4)c1OC (stereo not given)
MDA-MB-231 breast
  TGI: > 100 µM
K-562 leukemia
  TGI: 9.05 µM
DU-145 prostate
  TGI: 68.7 µM
SF-539 CNS
  TGI: 84.2 µM
M14 melanoma
  TGI: > 100 µM
RXF 393 renal
  TGI: 44.1 µM
T-47D breast
  TGI: > 100 µM
CCRF-CEM leukemia
  TGI: 31.6 µM
HCC-2998 colon
  TGI: 6.79 µM
786-0 renal
  TGI: > 100 µM
SK-OV-3 ovarian
  TGI: > 100 µM
SF-268 CNS
  TGI: > 100 µM
SNB-19 CNS
  TGI: > 100 µM
SW-620 colon
  TGI: > 100 µM
NCI-H522 lung
  TGI: > 100 µM
OVCAR-3 ovarian
  TGI: 24 µM
MOLT-4 leukemia
  TGI: 53.3 µM
HS 578T breast
  TGI: 80.1 µM
SNB-75 CNS
  TGI: > 100 µM
U251 CNS
  TGI: > 100 µM
OVCAR-8 ovarian
  TGI: > 100 µM
HCT-15 colon
  TGI: > 100 µM
SF-295 CNS
  TGI: 4.24 µM
CAKI-1 renal
  TGI: > 100 µM
A549 NSCLC
  TGI: > 100 µM
BT-549 breast
  TGI: 67.2 µM
OVCAR-5 ovarian
  TGI: > 100 µM
KM12 colon
  TGI: > 100 µM
SK-MEL-5 melanoma
  TGI: > 100 µM
MDA-N
  TGI: > 100 µM
NCI-H226 lung
  TGI: 74.4 µM
A498 renal
  TGI: 88.1 µM
NCI-H23 lung
  TGI: 96.9 µM
MDA-MB-435
  TGI: > 100 µM
TK-10 renal
  TGI: 25.1 µM
EKVX NSCLC
  TGI: 32.3 µM
UACC-257 melanoma
  TGI: 71.5 µM
ACHN renal
  TGI: > 100 µM
HCT-116 colon
  TGI: 23.4 µM
SN12C renal
  TGI: > 100 µM
LOX IMVI melanoma
  TGI: > 100 µM
NCI-H460 lung
  TGI: > 100 µM
UACC-62 melanoma
  TGI: > 100 µM
MCF7 breast
  TGI: 76.2 µM
SR leukemia
  TGI: 18.8 µM
UO-31 renal
  TGI: > 100 µM
IGROV1 ovarian
  TGI: > 100 µM
HL-60(TB) leukemia
  TGI: 17 µM
SK-MEL-28 melanoma
  TGI: > 100 µM
COLO 205 colon
  TGI: 15.7 µM
RPMI-8226 leukemia
  TGI: > 100 µM
SK-MEL-2 melanoma
  TGI: > 100 µM
PC-3 prostate
  TGI: 46.6 µM
HOP-62 NSCLC
  TGI: > 100 µM
HT29 colon
  TGI: 58.2 µM
MALME-3M melanoma
  TGI: 70.7 µM

— PubChem BioAssay (NCI)
